Measured values taken from patent publication US20240148821A1, “PHARMACEUTICAL USE OF CYCLIC PEPTIDE COMPOUND” (CHUGAI SEIYAKU KABUSHIKI KAISHA, priority 2021, published 2024).
Bridge positions count the residues as written; N and C are the ends. Square brackets hold non-standard residues; d marks the D form. Peptide text beside a SMILES is read from it. * marks the point of attachment. hPhe(3,5-F2-4-CF3) = N[C@@H](CCc1cc(F)c(C(F)(F)F)c(F)c1)C(=O)O; hPhe(3-Cl-4-CF3) = N[C@@H](CCc1ccc(C(F)(F)F)c(Cl)c1)C(=O)O; hPhe(3-F,4-CF3) = N[C@@H](CCc1ccc(C(F)(F)F)c(F)c1)C(=O)O; NMePhe(4-CF3) = CN[C@@H](Cc1ccc(C(F)(F)F)cc1)C(=O)O; NMeAbu(4,4,4-F3) = CN[C@@H](CC(F)(F)F)C(=O)O; NMePhe(4-Me) = CN[C@@H](Cc1ccc(C)cc1)C(=O)O; NMeGly(cPent) = CN[C@H](C(=O)O)C1CCCC1; Pro(4,4-F2) = O=C(O)[C@@H]1CC(F)(F)CN1; NMeCha = CN[C@@H](CC1CCCCC1)C(=O)O; Hyp = O=C(O)[C@@H]1C[C@@H](O)CN1; NEtLeu = CCN[C@@H](CC(C)C)C(=O)O; NMeChg = CN[C@H](C(=O)O)C1CCCCC1; NMeI = CC[C@H](C)[C@H](NC)C(=O)O; X17 = FC1(F)CN(*)CC(F)(F)C1(F)F; NMeD = CN[C@@H](CC(=O)O)C(=O)O; NMeL = CN[C@@H](CC(C)C)C(=O)O; NMeNva = CCC[C@H](NC)C(=O)O; NMeV = CN[C@H](C(=O)O)C(C)C; Azetidin(1-yl) = C1CN(*)C1; Morpholide = C1CN(*)CCO1; NMeA = CN[C@@H](C)C(=O)O; Piperidide = C1CCN(*)CC1; Pyrrolidide = C1CCN(*)C1; Ac5c = NC1(C(=O)O)CCCC1; Aze = O=C(O)[C@@H]1CCN1; Ac4c = NC1(C(=O)O)CCC1; NEtG = CCNCC(=O)O; Sar = CNCC(=O)O

Experiments:
[1] = system: Human pancreatic cancer cell line AsPC-1 (G12D mutation Kras); test: AsPC-1 cell growth inhibition (AsPC-1 CGI); assay type: cell-based; details: read-out: AsPC-1 cell growth inhibition, 50% growth inhibitory concentration (IC50 value); 96 hours, CellTiter-Glo, values classified in ranges
Method: Test compounds were serially dilated with dimethyl sulfoxide, and 200 nL was then dispensed to a U-bottom 96-well plate using Labcyte Echo. […] The cell suspension was dispensed to a. plate containing a test compound at 100 μL per well and incubated at 37° C. in a 5% carbon dioxide gas incubator. 96 hours later, 80 μL of CellTiter-Glo (Promega) was added to each well and fluorescence was measured.

[2] = target: protein-protein interaction between Kras and SOS1 (biotin-tagged human Kras loaded with GDP, His-tagged human SOS1) (Homo sapiens (Human), UniProt P01116, G12D); test: Protein-protein interaction inhibition between Kras and SOS1 (KrasG12D-SOS PPI) using AlphaScreen; assay type: biochemical; details: AlphaScreen; biotin-tagged human Kras loaded with GDP, His-tagged human SOS1; read-out: KRAS G12D-SOS PPI IC50;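 further: kras produced in E. coli, Ni-coupled donor beads and streptavidin acceptor beads, excitation 680 nm with emission detected at 520–620 nm via singlet oxygen transfer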

Structure (SMILES)	IC50 [1]	IC50 [2]
CCC[C@H]1C(=O)N[C@@H]([C@@H](C)CC)C(=O)N(C)CC(=O)N(C)CC(=O)N(C)[C@@H](Cc2ccc(C)cc2)C(=O)N(C)CC(=O)N[C@@H](CCc2cc(F)c(C(F)(F)F)c(F)c2)C(=O)N2C[C@H](OCC)C[C@H]2C(=O)NC2(CCCC2)C(=O)N(C)[C@@H](C2CCCCC2)C(=O)N(C)[C@H](C(=O)N2CCCC2)CC(=O)N1C [Compound 1224] ([NMeNva]I[Sar][Sar][NMePhe(4-Me)][Sar][hPhe(3,5-F2-4-CF3)][Hyp](Et)[Ac5c][NMeChg][NMeD]-Pyrrolidide; lactam N-11)	≤ 20 nM	0.67 nM
CC[C@H](C)[C@@H]1NC(=O)[C@H](CC(C)C)N(C)C(=O)C[C@@H](C(=O)N2CC(F)(F)C(F)(F)C(F)(F)C2)N(C)C(=O)[C@H](C2CCCCC2)N(C)C(=O)C2(CCCC2)NC(=O)[C@@H]2CCCN2C(=O)[C@H](CCc2ccc(C(F)(F)F)c(Cl)c2)NC(=O)CN(C)C(=O)[C@H](CC2CCCCC2)N(C)C(=O)CN(C)C(=O)CN(C)C1=O [Compound 1229] ([NMeL]I[Sar][Sar][NMeCha][Sar][hPhe(3-Cl-4-CF3)]P[Ac5c][NMeChg][NMeD]-X17; lactam N-11)	> 500 nM	46 nM
CCO[C@@H]1C[C@H]2C(=O)NC3(CCCC3)C(=O)N(C)[C@@H](C3CCCC3)C(=O)N(C)[C@H](C(=O)N(C)C)CC(=O)N(C)[C@@H](CC(C)C)C(=O)N[C@@H]([C@@H](C)CC)C(=O)N(C)[C@@H](C)C(=O)N3CC[C@H]3C(=O)N(C)[C@@H](CC3CCCCC3)C(=O)N(C)CC(=O)N[C@@H](CCc3ccc(C(F)(F)F)c(F)c3)C(=O)N2C1 [Compound 1231] ([NMeL]I[NMeA][Aze][NMeCha][Sar][hPhe(3-F,4-CF3)][Hyp](Et)[Ac5c][NMeGly(cPent)][NMeD]-NMe2; lactam N-11)	≤ 20 nM	0.59 nM
CC[C@H](C)[C@@H]1NC(=O)[C@H](CC(C)C)N(CC)C(=O)C[C@@H](C(=O)N2CCOCC2)N(C)C(=O)[C@H]([C@@H](C)CC)N(C)C(=O)C2(CCCC2)NC(=O)[C@@H]2CCCN2C(=O)[C@H](CCc2ccc(C(F)(F)F)c(Cl)c2)NC(=O)CN(C)C(=O)[C@H](Cc2ccc(C(F)(F)F)cc2)N(C)C(=O)[C@@H]2CCN2C(=O)[C@H](C)N(C)C1=O [Compound 1234] ([NEtLeu]I[NMeA][Aze][NMePhe(4-CF3)][Sar][hPhe(3-Cl-4-CF3)]P[Ac5c][NMeI][NMeD]-Morpholide; lactam N-11)	≤ 20 nM	4.5 nM
CCO[C@@H]1C[C@H]2C(=O)NC3(CCC3)C(=O)N(C)[C@@H](C3CCCCC3)C(=O)N(C)[C@H](C(=O)N3CCCC3)CC(=O)N(C)[C@@H](CC(C)C)C(=O)N[C@@H]([C@@H](C)CC)C(=O)N(C)CC(=O)N(C)CC(=O)N(C)[C@@H](CC3CCCCC3)C(=O)N(C)CC(=O)N[C@@H](CCc3ccc(C(F)(F)F)c(Cl)c3)C(=O)N2C1 [Compound 1241] ([NMeL]I[Sar][Sar][NMeCha][Sar][hPhe(3-Cl-4-CF3)][Hyp](Et)[Ac4c][NMeChg][NMeD]-Pyrrolidide; lactam N-11)	≤ 20 nM	0.5 nM
CC[C@H](C)[C@@H]1NC(=O)[C@H](CC(C)C)N(C)C(=O)C[C@@H](C(=O)N2CCCC2)N(C)C(=O)[C@H]([C@@H](C)CC)N(C)C(=O)C2(CCCC2)NC(=O)[C@@H]2CC(F)(F)CN2C(=O)[C@H](CCc2ccc(C(F)(F)F)c(Cl)c2)NC(=O)CN(C)C(=O)[C@H](Cc2ccc(C(F)(F)F)cc2)N(C)C(=O)[C@@H]2CCN2C(=O)[C@H](C)N(C)C1=O [Compound 1242] ([NMeL]I[NMeA][Aze][NMePhe(4-CF3)][Sar][hPhe(3-Cl-4-CF3)][Pro(4,4-F2)][Ac5c][NMeI][NMeD]-Pyrrolidide; lactam N-11)	≤ 20 nM	0.52 nM
CC[C@H](C)[C@@H]1NC(=O)[C@H](CC(C)C)N(C)C(=O)C[C@@H](C(=O)N2CCC2)N(C)C(=O)[C@H](C2CCCC2)N(C)C(=O)C2(CCCC2)NC(=O)[C@@H]2CC(F)(F)CN2C(=O)[C@H](CCc2cc(F)c(C(F)(F)F)c(F)c2)NC(=O)CN(C)C(=O)[C@H](CC2CCCCC2)N(C)C(=O)[C@@H]2CCN2C(=O)[C@H](C)N(C)C1=O [Compound 1248] ([NMeL]I[NMeA][Aze][NMeCha][Sar][hPhe(3,5-F2-4-CF3)][Pro(4,4-F2)][Ac5c][NMeGly(cPent)][NMeD]-{Azetidin(1-yl)}; lactam N-11)	≤ 20 nM	0.67 nM
CCO[C@@H]1C[C@H]2C(=O)NC3(CCCC3)C(=O)N(C)[C@@H](C3CCCC3)C(=O)N(C)[C@H](C(=O)N3CCOCC3)CC(=O)N(C)[C@@H](CC(C)C)C(=O)N[C@@H]([C@@H](C)CC)C(=O)N(C)[C@@H](C)C(=O)N3CC[C@H]3C(=O)N(C)[C@@H](CC3CCCCC3)C(=O)N(C)CC(=O)N[C@@H](CCc3cc(F)c(C(F)(F)F)c(F)c3)C(=O)N2C1 [Compound 1250] ([NMeL]I[NMeA][Aze][NMeCha][Sar][hPhe(3,5-F2-4-CF3)][Hyp](Et)[Ac5c][NMeGly(cPent)][NMeD]-Morpholide; lactam N-11)	≤ 20 nM	0.63 nM
CCO[C@@H]1C[C@H]2C(=O)NC3(CCCC3)C(=O)N(C)[C@@H](C3CCCC3)C(=O)N(C)[C@H](C(=O)N3CCOCC3)CC(=O)N(C)[C@@H](CC(C)C)C(=O)N[C@@H]([C@@H](C)CC)C(=O)N(C)[C@@H](C)C(=O)N3CC[C@H]3C(=O)N(C)[C@@H](CC3CCCCC3)C(=O)N(C)CC(=O)N[C@@H](CCc3ccc(C(F)(F)F)c(Cl)c3)C(=O)N2C1 [Compound 1259] ([NMeL]I[NMeA][Aze][NMeCha][Sar][hPhe(3-Cl-4-CF3)][Hyp](Et)[Ac5c][NMeGly(cPent)][NMeD]-Morpholide; lactam N-11)	≤ 20 nM	0.49 nM
CC[C@H](C)[C@@H]1NC(=O)[C@H](CC(C)C)N(C)C(=O)C[C@@H](C(=O)N(C)C)N(C)C(=O)[C@H](C2CCCC2)N(C)C(=O)C2(CCCC2)NC(=O)[C@@H]2CC(F)(F)CN2C(=O)[C@H](CCc2ccc(C(F)(F)F)c(F)c2)NC(=O)CN(C)C(=O)[C@H](CC2CCCCC2)N(C)C(=O)[C@@H]2CCN2C(=O)[C@H](C)N(C)C1=O [Compound 1264] ([NMeL]I[NMeA][Aze][NMeCha][Sar][hPhe(3-F,4-CF3)][Pro(4,4-F2)][Ac5c][NMeGly(cPent)][NMeD]-NMe2; lactam N-11)	≤ 20 nM	0.54 nM
CCC[C@H]1C(=O)N[C@@H]([C@@H](C)CC)C(=O)N(C)CC(=O)N(C)CC(=O)N(C)[C@@H](CC2CCCCC2)C(=O)N(C)CC(=O)N[C@@H](CCc2ccc(C(F)(F)F)c(Cl)c2)C(=O)N2C[C@H](OCC)C[C@H]2C(=O)NC2(CCCC2)C(=O)N(C)[C@@H](C2CCCCC2)C(=O)N(C)[C@H](C(=O)N2CCCC2)CC(=O)N1C [Compound 1267] ([NMeNva]I[Sar][Sar][NMeCha][Sar][hPhe(3-Cl-4-CF3)][Hyp](Et)[Ac5c][NMeChg][NMeD]-Pyrrolidide; lactam N-11)	≤ 20 nM	0.36 nM
CCO[C@@H]1C[C@H]2C(=O)NC3(CCCC3)C(=O)N(C)[C@@H](C3CCCCC3)C(=O)N(C)[C@H](C(=O)N3CCCC3)CC(=O)N(C)[C@@H](CC(F)(F)F)C(=O)N[C@@H]([C@@H](C)CC)C(=O)N(C)CC(=O)N(C)CC(=O)N(C)[C@@H](Cc3ccc(C(F)(F)F)cc3)C(=O)N(C)CC(=O)N[C@@H](CCc3cc(F)c(C(F)(F)F)c(F)c3)C(=O)N2C1 [Compound 1271] ([NMeAbu(4,4,4-F3)]I[Sar][Sar][NMePhe(4-CF3)][Sar][hPhe(3,5-F2-4-CF3)][Hyp](Et)[Ac5c][NMeChg][NMeD]-Pyrrolidide; lactam N-11)	≤ 20 nM	0.49 nM
CC[C@H](C)[C@@H]1NC(=O)[C@H](CC(C)C)N(C)C(=O)C[C@@H](C(=O)N2CCOCC2)N(C)C(=O)[C@H](C2CCCC2)N(C)C(=O)C2(CCCC2)NC(=O)[C@@H]2CCCN2C(=O)[C@H](CCc2ccc(C(F)(F)F)c(Cl)c2)NC(=O)CN(CC)C(=O)[C@H](CC2CCCCC2)N(C)C(=O)[C@@H]2CCN2C(=O)[C@H](C)N(C)C1=O [Compound 1272] ([NMeL]I[NMeA][Aze][NMeCha][NEtG][hPhe(3-Cl-4-CF3)]P[Ac5c][NMeGly(cPent)][NMeD]-Morpholide; lactam N-11)	≤ 20 nM	2 nM
CC[C@H](C)[C@@H]1NC(=O)[C@H](CC(C)C)N(C)C(=O)C[C@@H](C(=O)N2CCCCC2)N(C)C(=O)[C@H](C(C)C)N(C)C(=O)C2(CCCC2)NC(=O)[C@@H]2CCCN2C(=O)[C@H](CCc2ccc(C(F)(F)F)c(Cl)c2)NC(=O)CN(CC)C(=O)[C@H](CC2CCCCC2)N(C)C(=O)[C@@H]2CCN2C(=O)[C@H](C)N(C)C1=O [Compound 1276] ([NMeL]I[NMeA][Aze][NMeCha][NEtG][hPhe(3-Cl-4-CF3)]P[Ac5c][NMeV][NMeD]-Piperidide; lactam N-11)	> 500 nM	17 nM
CC[C@H](C)[C@@H]1NC(=O)[C@H](CC(C)C)N(C)C(=O)C[C@@H](C(=O)N2CCC2)N(C)C(=O)[C@H](C2CCCC2)N(C)C(=O)C2(CCCC2)NC(=O)[C@@H]2CC(F)(F)CN2C(=O)[C@H](CCc2ccc(C(F)(F)F)c(Cl)c2)NC(=O)CN(C)C(=O)[C@H](CC2CCCCC2)N(C)C(=O)[C@@H]2CCN2C(=O)[C@H](C)N(C)C1=O [Compound 1283] ([NMeL]I[NMeA][Aze][NMeCha][Sar][hPhe(3-Cl-4-CF3)][Pro(4,4-F2)][Ac5c][NMeGly(cPent)][NMeD]-{Azetidin(1-yl)}; lactam N-11)	≤ 20 nM	0.63 nM
CCC[C@H]1C(=O)N[C@@H]([C@@H](C)CC)C(=O)N(C)CC(=O)N(C)CC(=O)N(C)[C@@H](Cc2ccc(C)cc2)C(=O)N(C)CC(=O)N[C@@H](CCc2ccc(C(F)(F)F)c(Cl)c2)C(=O)N2C[C@H](OCC)C[C@H]2C(=O)NC2(CCCC2)C(=O)N(C)[C@@H](C2CCCCC2)C(=O)N(C)[C@H](C(=O)N2CCCC2)CC(=O)N1C [Compound 1285] ([NMeNva]I[Sar][Sar][NMePhe(4-Me)][Sar][hPhe(3-Cl-4-CF3)][Hyp](Et)[Ac5c][NMeChg][NMeD]-Pyrrolidide; lactam N-11)	≤ 20 nM	0.53 nM
